Experimental findings from patent publication US20100035878A1, “INHIBITORS OF C-JUN N-TERMINAL KINASES FOR THE TREATMENT OF NEURODEGENERATIVE DISORDERS RELATING TO APOPTOSIS AND/OR INFLAMMATION” (EISAI R & D MANAGEMENT CO., LTD., priority 2005, published 2010) are described below.

This experiment concerns the target JNK3 (Homo sapiens, UniProt P53779). The experiment in a line: JNK3 SPA assay (phosphorylation of GST-c-Jun). In kind it is biochemical. Particulars: GST-c-Jun substrate, [γ-33P] ATP, 30 minutes at room temperature. The method, then: JNK1, JNK2, JNK3-SPA Assay
• 1. Compound is dissolved in DMSO to a convenient concentration and this is diluted in 10% DMSO to a five times concentrate of the desired starting concentration (frequently 1:100). • 2. 10 μl of 500 mM EDTA is added to alternative wells of the Opti-plate row, which will receive kinase reaction plus DMSO. This creates the negative control. • 3. For the JNK2 and JNK3 assay, compounds are prepared in six 2-fold dilutions with water and each concentration is tested in duplicate. For the JNK1 assay compounds are prepared in four 5-fold dilutions with water which are tested in triplicate. Controls are treated identically. • 4. 20 μl per well of each compound concentration is transferred to an Opti-plate, in duplicate. • 5. 30 μl (JNK2/3 SPA) or 50 μl (JNK1 SPA) of substrate solution (25 mM HEPES pH 7.5, 10 mM magnesium acetate with 3.33 µM ATP (JNK2/3) or 2 µM ATP (JNK1), approximately 7.5 kBq [γ-^33P] ATP, GST-c-Jun, in water) is added to each well. • 6. 50 μl (JNK2/3 SPA) or 30 μl (JNK1 SPA) of kinase solution (JNK in 25 mM HEPES pH 7.5, 10 mM Mg Acetate) is added to each well.
• 7. The plate is incubated for 30 minutes at room temperature. • 8. 100 μl of bead/stop solution is added to each well (5 mg/ml glutathione-PVT-SPA beads, 40 mM ATP in PBS). • 9. Plates are sealed and incubated for 30 minutes at room temperature, centrifuged for 10 minutes at 2500 g and counted. • 10. The IC50 values are calculated as the concentration of the compound being tested at which the phosphorylation of c-Jun is decreased to 50% of the control value.

Where only a bound is given, the exact number is not on record here.

Sequence of JNK3 (P53779 whole entry): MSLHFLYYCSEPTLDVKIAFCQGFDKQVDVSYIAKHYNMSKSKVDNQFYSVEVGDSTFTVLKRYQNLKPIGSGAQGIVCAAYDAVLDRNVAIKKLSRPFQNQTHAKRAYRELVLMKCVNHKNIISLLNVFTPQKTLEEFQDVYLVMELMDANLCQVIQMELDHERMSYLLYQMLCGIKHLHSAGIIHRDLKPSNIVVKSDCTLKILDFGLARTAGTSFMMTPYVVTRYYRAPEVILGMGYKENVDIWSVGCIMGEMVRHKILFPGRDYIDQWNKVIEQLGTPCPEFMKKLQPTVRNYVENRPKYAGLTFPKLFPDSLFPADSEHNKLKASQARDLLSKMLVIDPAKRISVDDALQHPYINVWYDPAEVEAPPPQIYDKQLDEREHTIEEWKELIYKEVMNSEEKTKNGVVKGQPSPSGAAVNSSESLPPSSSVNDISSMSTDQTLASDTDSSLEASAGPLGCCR

For orientation: IC50 means the concentration that gives 50% inhibition. For the molecule `CCCCOc1cnc2[nH]cc(-c3cnn(C)c3)c2c1`, the IC50 is under 500 nM.
To `COc1cnc2[nH]cc(-c3cn[nH]c3)c2c1` belongs under 1000 nM; to `O=C(O)c1ccccc1C(=O)Nc1cnc2[nH]cc(-c3cncs3)c2c1`, under 200 nM; to `O=C(Nc1cnc2[nH]cc(-c3ccoc3)c2c1)c1ccc(F)cc1`, under 500 nM.
In turn, `Cc1ccccc1Oc1cnc2[nH]cc(-c3cnn(C)c3)c2c1` had an IC50 of under 500 nM.
To `Cn1cc(-c2c[nH]c3ncc(OCc4ccccc4)cc23)cn1` belongs under 500 nM; to `Cc1cccc(Oc2cnc3[nH]cc(-c4cnn(C)c4)c3c2)c1`, under 1000 nM.
To `C#CCOc1cnc2[nH]cc(-c3cnn(C)c3)c2c1` belongs under 500 nM; to `CCOc1cnc2[nH]cc(-c3cnn(C)c3)c2c1`, under 500 nM; to `COCCOc1cnc2[nH]cc(-c3cnn(C)c3)c2c1`, under 2000 nM.
To `Cn1cc(-c2c[nH]c3ncc(OC4CCCC4)cc23)cn1` belongs under 200 nM; to `Cc1ccc(Oc2cnc3[nH]cc(-c4cnn(C)c4)c3c2)cc1`, under 500 nM.
For `Cn1cc(-c2c[nH]c3ncc(OCCc4ccccc4)cc23)cn1`, the IC50 was under 500 nM.
To `Nc1cnc2[nH]cc(-c3cn[nH]c3)c2c1` belongs under 500 nM.
To `CCCCSc1cnc2[nH]cc(-c3cnn(C)c3)c2c1` belongs under 100 nM.
To `[O-][S+](c1ccccc1)c1cnc2[nH]cc(-c3cn[nH]c3)c2c1` (centres unmarked) belongs under 500 nM; to `CCCC[S+]([O-])c1cnc2[nH]cc(-c3cn[nH]c3)c2c1` (centres unmarked), under 1000 nM; to `Cn1cc(-c2c[nH]c3ncc(CN4CCc5ccccc54)cc23)cn1`, under 500 nM.
Molecule `Cn1cc(-c2c[nH]c3ncc(Cn4ccc5ccccc54)cc23)cn1` registered an IC50 of under 500 nM.
The figure for `CC(C)CCCc1cnc2[nH]cc(-c3cnn(C)c3)c2c1` is under 200 nM; for `CCCCCCCCc1cnc2[nH]cc(-c3cnn(C)c3)c2c1` it is under 100 nM.
`CCCCCc1cnc2[nH]cc(-c3cnn(C)c3)c2c1` had an IC50 of under 200 nM.
On to `Cn1cc(-c2c[nH]c3ncc(CCCCO)cc23)cn1`, for which the IC50 is under 1000 nM.
The figure for `Cn1cc(-c2c[nH]c3ncc(OCC4CCCCC4)cc23)cn1` is under 500 nM; for `CC(C)Cc1cnc2[nH]cc(-c3csc(C(=O)N4CCCCC4)n3)c2c1` it is under 200 nM.
The figure for `CCCCCc1cnc2[nH]cc(-c3csc(C(=O)N(C)C)n3)c2c1` is under 500 nM; for `CCCCCc1cnc2[nH]cc(-c3csc(C(=O)N4CCOCC4)n3)c2c1` it is under 500 nM.
The figure for `CN(C)C1CCC(Cc2cnc3[nH]cc(-c4cnn(C)c4)c3c2)CC1` (centres unmarked) is under 200 nM.
`CN1CCN(C2CCC(Cc3cnc4[nH]cc(-c5cnn(C)c5)c4c3)CC2)CC1` (centres unmarked) registered an IC50 of under 200 nM.
In turn, `CC(C)Cc1cnc2[nH]cc(-c3cnn(CCN4CCOCC4)c3)c2c1` gave an IC50 of under 500 nM.
To `Cn1cc(-c2c[nH]c3ncc(CC4CCCC4)cc23)cn1` belongs under 100 nM.
In turn, `Cn1cc(-c2c[nH]c3ncc(CC4=CCCC4)cc23)cn1` registered an IC50 of under 200 nM.
To `Cn1cc(-c2c[nH]c3ncc(CC4CCN(Cc5ccccc5)CC4)cc23)cn1` belongs under 200 nM; to `Cn1cc(-c2c[nH]c3ncc(Cc4ccccc4)cc23)cn1`, under 200 nM.
`c1ccc(Sc2cnc3[nH]cc(-c4cn[nH]c4)c3c2)cc1` displayed a 50% inhibitory concentration (IC50) of under 200 nM.
As for `CC(C)(C)OC(=O)Nc1cnc2[nH]cc(-c3cn[nH]c3)c2c1`, the IC50 was under 1000 nM.
To `Cn1cc(-c2c[nH]c3ncc(Oc4ccccc4)cc23)cn1` belongs under 500 nM; to `CCOC(=O)COc1cnc2[nH]cc(-c3cnn(C)c3)c2c1`, under 2000 nM.
As for `CCCCCCOc1cnc2[nH]cc(-c3cnn(C)c3)c2c1`, the IC50 is under 500 nM.
`CCCCCOc1cnc2[nH]cc(-c3cnn(C)c3)c2c1` yielded an IC50 of under 200 nM.
To `CCCOc1cnc2[nH]cc(-c3cnn(C)c3)c2c1` belongs under 500 nM; to `C=CCOc1cnc2[nH]cc(-c3cnn(C)c3)c2c1`, under 500 nM.
For `Cn1cc(-c2c[nH]c3ncc(Oc4ccc(F)cc4)cc23)cn1`, the IC50 was under 1000 nM.
To `Oc1cnc2[nH]cc(-c3cn[nH]c3)c2c1` belongs under 2000 nM.
The figure for `CN(C)c1ccc(Oc2cnc3[nH]cc(-c4cnn(C)c4)c3c2)cc1` is under 500 nM; for `CC(C)Cc1cnc2[nH]cc(-c3csc(C(=O)N4CCN(C)CC4)n3)c2c1` it is under 100 nM; for `CN(C)c1cccc(Sc2cnc3[nH]cc(-c4cnn(C)c4)c3c2)c1` it is under 200 nM.
To `CCCCS(=O)(=O)c1cnc2[nH]cc(-c3cn[nH]c3)c2c1` belongs under 1000 nM; to `Cn1cc(-c2c[nH]c3ncc(CC4CCC(O)CC4)cc23)cn1` (centres unmarked), under 100 nM.
`Cn1cc(-c2c[nH]c3ncc(CCC4CCCCC4)cc23)cn1`: the IC50 was under 200 nM.
The figure for `Cn1cc(-c2c[nH]c3ncc(CN4CCCCC4)cc23)cn1` is under 1000 nM; for `CCCCCCCc1cnc2[nH]cc(-c3cnn(C)c3)c2c1` it is under 100 nM.
To `CCCc1cnc2[nH]cc(-c3cnn(C)c3)c2c1` belongs under 100 nM.
Molecule `Cn1cc(-c2c[nH]c3ncc(CCC(C)(C)C)cc23)cn1` registered an IC50 of under 500 nM.
Regarding `CC(C)Cc1cnc2[nH]cc(-c3cnn(C)c3)c2c1`, the IC50 was under 100 nM.
To `Cn1cc(-c2c[nH]c3ncc(OCC4CC4)cc23)cn1` belongs under 500 nM.
The figure for `CC(C)Cc1cnc2[nH]cc(-c3csc(C4CCN(C)CC4)n3)c2c1` is under 1000 nM; for `CC(C)Cc1cnc2[nH]cc(-c3csc(C(=O)N4CCOCC4)n3)c2c1` it is under 200 nM; for `CCCCCc1cnc2[nH]cc(-c3csc(C(=O)N4CCCCC4)n3)c2c1` it is under 200 nM.
To `CCCCCc1cnc2[nH]cc(-c3csc(C(=O)N4CCN(C)CC4)n3)c2c1` belongs under 200 nM; to `Cn1cc(-c2c[nH]c3ncc(CC4CCC(N5CCOCC5)CC4)cc23)cn1` (centres unmarked), under 200 nM.
For `Cn1cc(-c2c[nH]c3ncc(CC4CCC(=O)CC4)cc23)cn1`, the half-inhibitory concentration (IC50) is under 200 nM.
The molecule `Cn1cc(-c2c[nH]c3ncc(CC4CCCCC4)cc23)cn1` returned an IC50 of under 100 nM.
The figure for `Cn1cc(-c2c[nH]c3ncc(CC4CCC4)cc23)cn1` is under 100 nM; for `Cn1cc(-c2c[nH]c3ncc(CC4=CCCCC4)cc23)cn1` it is under 200 nM.
